In patent US20240327381A1, “Compounds and Compositions for Selective Degradation of Engineered Proteins” (Celgene Corporation, priority 2023, published 2024):

What was measured:
Helios = target: T1, Helios (Homo sapiens, UniProt Q9UKS7); assay: Helios degradation in Jurkat/Helios/HiBit cells (Nano-Glo luminescence); type: cell-based; conditions: 18 hr, read-out: Helios Jurkat Hibit IC50
T1 construct: endogenous in cells; host or cells: Jurkat cells, CRISPR/Cas9 knock-in of HiBit at the IKZF2 locus
T1 sequence (Q9UKS7 whole entry): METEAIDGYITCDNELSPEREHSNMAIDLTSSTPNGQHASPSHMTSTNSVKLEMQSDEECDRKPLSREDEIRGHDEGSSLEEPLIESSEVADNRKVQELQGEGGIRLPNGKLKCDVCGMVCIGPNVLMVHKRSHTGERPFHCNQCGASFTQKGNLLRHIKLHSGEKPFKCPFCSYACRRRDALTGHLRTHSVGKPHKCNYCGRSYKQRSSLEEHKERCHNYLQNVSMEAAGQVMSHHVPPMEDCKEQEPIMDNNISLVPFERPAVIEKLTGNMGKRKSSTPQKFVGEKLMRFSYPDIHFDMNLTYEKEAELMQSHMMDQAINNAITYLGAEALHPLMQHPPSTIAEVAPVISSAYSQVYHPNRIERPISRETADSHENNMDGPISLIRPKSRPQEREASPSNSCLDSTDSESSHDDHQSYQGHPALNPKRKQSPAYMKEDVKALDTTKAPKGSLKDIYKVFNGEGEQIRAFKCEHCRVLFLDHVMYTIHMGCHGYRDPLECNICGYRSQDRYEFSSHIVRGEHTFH
T1 sequence (Q96SW2 whole entry, further chain): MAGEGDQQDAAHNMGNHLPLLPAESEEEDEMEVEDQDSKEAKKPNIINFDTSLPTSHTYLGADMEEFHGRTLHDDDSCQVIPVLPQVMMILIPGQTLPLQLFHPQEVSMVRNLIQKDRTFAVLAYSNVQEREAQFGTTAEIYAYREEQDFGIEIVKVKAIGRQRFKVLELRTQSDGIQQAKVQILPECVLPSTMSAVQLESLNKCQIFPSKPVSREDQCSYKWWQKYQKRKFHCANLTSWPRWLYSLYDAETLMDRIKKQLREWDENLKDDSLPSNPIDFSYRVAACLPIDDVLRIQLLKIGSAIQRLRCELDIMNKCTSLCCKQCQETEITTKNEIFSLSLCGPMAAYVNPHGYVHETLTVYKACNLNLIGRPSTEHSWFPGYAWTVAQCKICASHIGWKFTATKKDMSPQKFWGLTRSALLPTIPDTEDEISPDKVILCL
T1 sequence (Q16531 whole entry partner): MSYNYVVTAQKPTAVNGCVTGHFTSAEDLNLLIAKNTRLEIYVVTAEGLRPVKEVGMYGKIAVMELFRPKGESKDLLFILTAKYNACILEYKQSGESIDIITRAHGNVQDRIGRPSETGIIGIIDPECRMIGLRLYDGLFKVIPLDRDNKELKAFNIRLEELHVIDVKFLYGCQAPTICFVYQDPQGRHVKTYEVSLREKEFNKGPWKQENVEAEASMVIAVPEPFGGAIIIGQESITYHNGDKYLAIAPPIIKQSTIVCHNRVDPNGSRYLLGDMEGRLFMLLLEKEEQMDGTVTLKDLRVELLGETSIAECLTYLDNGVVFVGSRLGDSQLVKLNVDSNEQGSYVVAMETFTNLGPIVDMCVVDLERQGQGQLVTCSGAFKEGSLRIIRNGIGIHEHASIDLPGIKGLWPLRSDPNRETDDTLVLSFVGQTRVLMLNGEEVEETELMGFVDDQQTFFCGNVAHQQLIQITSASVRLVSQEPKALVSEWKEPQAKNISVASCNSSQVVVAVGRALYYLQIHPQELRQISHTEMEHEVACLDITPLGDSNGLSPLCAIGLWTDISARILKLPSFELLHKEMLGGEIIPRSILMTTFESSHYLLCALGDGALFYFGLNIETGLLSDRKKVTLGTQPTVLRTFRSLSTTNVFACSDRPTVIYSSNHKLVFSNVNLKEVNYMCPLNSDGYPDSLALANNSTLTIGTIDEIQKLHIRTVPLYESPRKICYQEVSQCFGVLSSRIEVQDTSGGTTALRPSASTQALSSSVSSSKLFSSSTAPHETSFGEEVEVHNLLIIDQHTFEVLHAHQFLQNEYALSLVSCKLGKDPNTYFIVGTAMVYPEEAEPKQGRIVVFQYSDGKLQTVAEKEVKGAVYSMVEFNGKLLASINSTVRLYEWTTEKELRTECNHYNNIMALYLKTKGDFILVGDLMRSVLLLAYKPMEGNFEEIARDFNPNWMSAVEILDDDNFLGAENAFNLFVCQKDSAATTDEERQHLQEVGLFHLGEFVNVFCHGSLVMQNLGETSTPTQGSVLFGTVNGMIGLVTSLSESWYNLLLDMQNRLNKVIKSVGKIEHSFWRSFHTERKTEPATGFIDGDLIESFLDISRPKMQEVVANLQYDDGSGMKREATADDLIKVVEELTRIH
Procedure, shortened: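 Jurkat cells carrying CRISPR-knocked-in C-terminal HiBit-tagged endogenous IKZF2 were treated with compound in DMEM/10% FCS (10,000 cells/well) for 18 h at 37 °C. HiBit signal was read by Nano-Glo luminescence after 30 min at RT. EC50 for degradation came from a four-parameter logistic fit, with Ymax as % protein degraded.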

[1] = target: T2, IKZF1 ZNF2_ZNF3 Q1F degron-tagged CD19 CAR (Homo sapiens, UniProt Q13422, Q146F); assay: Degradation of Q1F degron-tagged CD19 CAR in Jurkat cells (flow cytometry of CAR levels); type: cell-based; conditions: for DC50: Jurkat cells expressing CD19 CAR tagged with IKZF1 ZNF2_ZNF3 Q1F, 18 hours at 37° C., CAR levels normalized to untreated cells, read-out: Q1F Jurkat IC50; for Dmax: Ymax is the % protein degraded, Jurkat cells expressing Q1F degron-tagged CD19 CAR, 18 hours, read-out: Q1F Jurkat-YMax
T2 construct: ZNF2_ZNF3 Q1F degron (GERPFFCNQCGASFTQKGNLLRHIKLHSGEKPFKCHLCNYACRRRDALTGHLRTHS); fused on or other part: anti-CD19 scFv, CD28 transmembrane domain, 4-1BB costimulatory domain, CD3 zeta signaling domain (the CAR that carries the degron), and Nluc
T2 sequence (Q13422 whole entry Q146F, the tested form may be a part): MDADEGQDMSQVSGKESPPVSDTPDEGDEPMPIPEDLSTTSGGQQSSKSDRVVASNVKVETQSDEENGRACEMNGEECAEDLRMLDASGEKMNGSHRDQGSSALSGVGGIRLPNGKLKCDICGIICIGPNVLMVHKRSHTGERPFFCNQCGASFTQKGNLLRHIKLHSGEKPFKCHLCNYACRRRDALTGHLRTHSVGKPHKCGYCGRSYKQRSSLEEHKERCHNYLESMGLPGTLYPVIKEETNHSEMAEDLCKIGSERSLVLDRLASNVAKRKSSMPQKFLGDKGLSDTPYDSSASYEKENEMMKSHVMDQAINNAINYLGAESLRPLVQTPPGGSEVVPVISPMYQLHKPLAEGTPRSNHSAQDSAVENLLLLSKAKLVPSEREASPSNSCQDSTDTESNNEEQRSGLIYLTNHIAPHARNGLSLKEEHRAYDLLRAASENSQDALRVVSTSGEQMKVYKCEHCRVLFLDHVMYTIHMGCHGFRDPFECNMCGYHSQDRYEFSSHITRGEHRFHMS
Procedure, shortened: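 Jurkat cells were lentivirally transduced with an anti-CD19 scFv/CD28 TM/4-1BB/CD3ζ CAR tagged with an IKZF1 ZNF2_ZNF3 Q1F degron–Nluc, then treated with compound titrations for 18 h at 37 °C. CAR surface levels were stained (20 min, 4 °C), read by flow cytometry and normalised to untreated cells. EC50 came from a four-parameter logistic fit; Ymin is the minimum % CAR remaining.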

| Structure (SMILES) | DC50 (Helios) [nM] | DC50 [1] [nM] | Dmax [1] [%] |
| --- | --- | --- | --- |
| CC(C)CN1CCC(c2c(F)cc3c(c2F)CN(C2CCC(=O)NC2=O)C3=O)CC1 (stereo not drawn) [Compound 95, 3-(4,6-difluoro-5-(1-isobutylpiperidin-4-yl)-1-oxoisoindolin-2-yl)piperidine-2,6-dione] | ≥ 10000 | 10.5 | 84.5 |
| O=C1CCC(N2Cc3c(cc(F)c(C4CCN(Cc5ccc(Cl)cc5)CC4)c3F)C2=O)C(=O)N1 (stereo not drawn) [Compound 96, 3-(5-(1-(4-chlorobenzyl)piperidin-4-yl)-4,6-difluoro-1-oxoisoindolin-2-yl)piperidine-2,6-dione] | ≥ 10000 | 4.17 | 89.7 |
| O=C1CCC(N2Cc3c(cc(F)c(C4CCN(C5CCCCC5)CC4)c3F)C2=O)C(=O)N1 (stereo not drawn) [Compound 97, 3-(5-(1-cyclohexylpiperidin-4-yl)-4,6-difluoro-1-oxoisoindolin-2-yl)piperidine-2,6-dione] | ≥ 10000 | 3.88 | 88.3 |
| CC(=O)Nc1ccc(CN2CCC(c3c(F)cc4c(c3F)CN(C3CCC(=O)NC3=O)C4=O)CC2)cc1 (stereo not drawn) [Compound 101, N-(4-((4-(2-(2,6-dioxopiperidin-3-yl)-4,6-difluoro-1-oxoisoindolin-5-yl)piperidin-1-yl)methyl)phenyl)acetamide] | ≥ 10000 | 0.473 | 86.9 |
| Cn1nccc1CN1CCC(c2c(F)cc3c(c2F)CN(C2CCC(=O)NC2=O)C3=O)CC1 (stereo not drawn) [Compound 102, 3-(4,6-difluoro-5-(1-((1-methyl-1H-pyrazol-5-yl)methyl)piperidin-4-yl)-1-oxoisoindolin-2-yl)piperidine-2,6-dione] | ≥ 10000 | 0.283 | 84.3 |

The next lines start with the values.

| DC50 (Helios) [nM] | DC50 [1] [nM] | Dmax [1] [%] | Structure (SMILES) |
| --- | --- | --- | --- |
| ≥ 10000 | 39.8 | 76.9 | CS(=O)(=O)NCCN1CCC(c2c(F)cc3c(c2F)CN(C2CCC(=O)NC2=O)C3=O)CC1 (stereo not drawn) [Compound 98, N-(2-(4-(2-(2,6-dioxopiperidin-3-yl)-4,6-difluoro-1-oxoisoindolin-5-yl)piperidin-1-yl)ethyl)methanesulfonamide] |
| ≥ 10000 | 369 | 58.6 | O=C1CCC(N2Cc3c(cc(F)c(C4CCN(Cc5nc(-c6ccccc6)no5)CC4)c3F)C2=O)C(=O)N1 (stereo not drawn) [Compound 99, 3-(4,6-difluoro-1-oxo-5-(1-((3-phenyl-1,2,4-oxadiazol-5-yl)methyl)piperidin-4-yl)isoindolin-2-yl)piperidine-2,6-dione] |
| ≥ 10000 | 22.6 | 75.5 | COCCOCCN1CCC(c2c(F)cc3c(c2F)CN(C2CCC(=O)NC2=O)C3=O)CC1 (stereo not drawn) [Compound 100, 3-(4,6-difluoro-5-(1-(2-(2-methoxyethoxy)ethyl)piperidin-4-yl)-1-oxoisoindolin-2-yl)piperidine-2,6-dione] |
| ≥ 10000 | 1.96 | 84.7 | Cc1cc(CN2CCC(c3c(F)cc4c(c3F)CN(C3CCC(=O)NC3=O)C4=O)CC2)nn1C (stereo not drawn) [Compound 103, 3-(5-(1-((1,5-dimethyl-1H-pyrazol-3-yl)methyl)piperidin-4-yl)-4,6-difluoro-1-oxoisoindolin-2-yl)piperidine-2,6-dione] |
| ≥ 10000 | 30.9 | 83.6 | O=C1CCC(N2Cc3c(cc(F)c(C4CCN(Cc5nc(C6CC6)cs5)CC4)c3F)C2=O)C(=O)N1 (stereo not drawn) [Compound 104, 3-(5-(1-((4-cyclopropylthiazol-2-yl)methyl)piperidin-4-yl)-4,6-difluoro-1-oxoisoindolin-2-yl)piperidine-2,6-dione] |
| ≥ 10000 | 83.5 | 75.3 | O=C1CCC(N2Cc3c(cc(F)c(C4CCN(Cc5nc(C(F)(F)F)cs5)CC4)c3F)C2=O)C(=O)N1 (stereo not drawn) [Compound 105, 3-(4,6-difluoro-1-oxo-5-(1-((4-(trifluoromethyl)thiazol-2-yl)methyl)piperidin-4-yl)isoindolin-2-yl)piperidine-2,6-dione] |
